Where a SMILES comes first, the peptide text is derived from it. [ ]: non-standard residue; d: D form. The star is where a group is joined. 2Abz = Nc1ccccc1C(=O)O; Cbz = O=C(OCc1ccccc1)*; CH2F = FC*
Key:
CPAF [1] = biological target: T1, CPAF (Chlamydia trachomatis serovar D, UniProt O84866); type: biochemical, C. trachomatis; set-up: 6xHis; made in house; host or cells: E. coli (pET30b); conditions: GST-chlamydial substrates in presence of peptides
Protocol: FIG. 4 depicts (A) Recombinant Chlamydia ORFs were tested for sensitivity to host and bacterial derived proteases. […] Purified his-tagged CPAF was incubated with GST-tagged chlamydial substrates at 37° C. for 20 min with increasing amounts of lactacystin. Cleavage products were run on an SDS PAGE gel and visualized with Coomassie blue staining. (C) Schematic summary of CPAF targets. […] Membranes from Chlamydia-infected HeLa cells were harvested and purified at 0, 24, 36 and 48 hours post-infection, and the abundance of the chlamydial proteins Ct005, IncC and IncD were monitored with specific antibodies. Na/K ATPase and IncG served as host and bacterial-loading controls, respectively.
Cytosols from Chlamydia-infected HeLa cells (40 hrs) or recombinant his-tagged CPAF were pre-treated with rabbit polyclonal anti-CPAF or anti-IncA antisera, and incubated with GST-tagged Chlamydia proteins for 20 min at 37° C. […] Three example proteins shown include a type-III secretion (T3S) core component (CdsQ) a T3S chaperone (Mcsc) and a T3S needle component (Ct584). Processing of recombinant proteins in A-B were monitored by immunoblot analysis with specific antibodies. (C) Protease inhibitor profile of recombinant CPAF. Example shown for the chlamydial substrate GST-IncC. Degradation products were visualized by SDS-PAGE followed by staining with Coomassie blue. […]
Uninfected and HeLa cells pre-infected with L2 for 30 hrs were treated with inhibitory peptides and infected with EBs for 10 min Tarp translocation was indirectly visualized with an anti-phosphotyrosine antibody (A) and quantified by counting 50 separate cells (B). The stability of newly translocated Tarp was assessed by infecting cells as in (A) but with S^35-labeled EBs, followed by sequential immunoprecipitation of Tarp and MOMP and Phosphoimager analysis of precipitated material (C (I-IV)). […] IC50 values were determined by assessing CPAF cleavage of an Abz-tagged CPAF substrate (SEQ ID NO:9) by HPLC. […] Extracellular bacteria were determined. […] The number of internalized EBs was quantified per cell (H). […]
Target sequence in this assay (O84866 1-234, added parts left off): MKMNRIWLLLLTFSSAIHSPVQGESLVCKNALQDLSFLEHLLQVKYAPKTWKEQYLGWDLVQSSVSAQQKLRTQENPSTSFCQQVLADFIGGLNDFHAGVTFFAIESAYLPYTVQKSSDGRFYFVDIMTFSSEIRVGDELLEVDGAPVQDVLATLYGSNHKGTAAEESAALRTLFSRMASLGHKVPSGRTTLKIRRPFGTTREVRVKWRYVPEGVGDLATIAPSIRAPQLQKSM
Target sequence in this assay (O84866 276-601): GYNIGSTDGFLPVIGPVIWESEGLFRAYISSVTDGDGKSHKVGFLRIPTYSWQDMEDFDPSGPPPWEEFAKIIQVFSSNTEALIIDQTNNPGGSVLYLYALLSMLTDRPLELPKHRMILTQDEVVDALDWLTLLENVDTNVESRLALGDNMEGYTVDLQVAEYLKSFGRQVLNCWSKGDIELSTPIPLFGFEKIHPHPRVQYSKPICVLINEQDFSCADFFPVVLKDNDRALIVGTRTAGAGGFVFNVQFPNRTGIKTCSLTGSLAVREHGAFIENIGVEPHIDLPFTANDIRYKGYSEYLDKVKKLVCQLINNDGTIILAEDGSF

[2] = tested on: epithelial cells infected with C. trachomatis; assay: Host cell death (condensed nuclei) in C. trachomatis infected cells; type: cell-based; conditions: caspase inhibitor added before the CPAF inhibitor peptide
Protocol: FIG. 11 depicts (A) that inhibiting CPAF activity induces host cell death. The indicated peptides (anti-CPAF peptide refers to SEQ ID NO:7) were added to infected cells 12 hpi and the percentage of infected cells with condensed nuclei was quantified at the indicated times. (B-C) Inhibition of CPAF activity induces apoptosis. Infected cells were treated with peptides and the percentage of AnnexinV-FITC positive (propidium iodide (PI) negative) was determined by flow cytometry (B). In parallel samples, cleavage of Caspase-3, a hallmark of apoptosome activation, was monitored by immunoblot analysis. Actin and MOMP are host and bacterial loading controls respectively. Staurosporine (2 μM)-treatment was used as a positive control and the pan-caspase inhibitor ZVAD-FMK were used as controls. (D) Cell death is blocked by a pan-Caspase inhibitor. Infected cells were treated as in (A) in the presence or absence of ZVAD-FMK, labeled with PI and analyzed by flow cytometry. Cells pre-treated with ZVAD-FMK and the control peptide lacked PI staining.
FIG. 12 depicts (A) low-magnification view of C. trachomatis LGV-L2 infected HeLa monolayers (30 h) treated with SEQ ID NO:7 or SEQ ID NO:11 peptides. […] HeLa cells infected with C. muridarum were treated with Ac-YVAD-CMK at 2 hpi, SEQ ID NO:7 peptide or SEQ ID NO:11 control peptide at 12 hpi and the percentage of infected cells with condensed nuclei was assessed at 48 hpi (F). […] The percentage of infected cells with condensed nuclei was assessed at 48 hpi (G). […] Cell death in infected and uninfected cells treated with CPAF inhibitory peptides or control peptides was determined by counting the number of condensed nuclei of ˜1000 cells.
FIG. 13 depicts (A) that Caspase-1 inhibitors block Chlamydia-mediated cell death. […] Cells were fixed and the percentage of cells with condensed nuclei determined at 24 hpi. […] Infected cells were labeled with a cell-permeable fluorescent substrate of Caspase-1 and treated with inhibitory peptides, and Caspase-1 activity was monitored by flow cytometry. […]

C. muridarum = C. muridarum growth in HeLa cells (recovered IFUs); type: cell-based; conditions: caspase-1 inhibitor at 2 hpi
Protocol: Cells were infected with an MOI of 1 and treated with CPAF inhibitor (SEQ ID NO:7) or control (SEQ ID NO:11) peptides at 12 hpi, fixed at 24 hpi and analyzed by IF with anti-L2 polyclonal antisera. Inclusion size was determined by measuring the inclusion diameter in μm by confocal microscopy of 50 infected cells. The number of cells with fragmented inclusions was determined by counting the number of infected cells out of 50 with more than one inclusion. (C) Sequence alignment and % sequence identify of full length CPAF and predicted inhibitory peptide sequence between C. trachomatis serovar LGV-L2, Chlamydia muridarum, and Chlamydophila caviae was determined using Geneious software (available at the Geneious website). […] GPIC or C. muridarum infected whole cell protein lysate was preincubated with SEQ ID NO:7 peptide or SEQ ID NO:11 control peptide, mixed with GST-IncC at 37° C., resolved by SDS-PAGE and stained with Coomassie blue. […] Inhibition of C. muridarum (E) and C. ceviae (F) growth was determined by counting the number of recovered IFUs. […] Inclusions were detected by IF with anti-LGV-L2 (A, B, E) antisera or anti-chlamydial LPS (F) monoclonal antibodies, and host nuclei sere detected by staining.

CPAF [3] = biological target: T1, CPAF; assay: HPLC-based CPAF enzyme kinetics with model substrate; type: biochemical, C. trachomatis; set-up: 6xHis; made in house; host or cells: E. coli BL21 (DE3), plasmid pET30b-CPAF; conditions: CPAF 62.5 nM, substrate 0-6 mM, 25° C.
Protocol: Proteolytic enzyme kinetics of CPAF were measured using an HPLC-based assay that quantifies the cleavage of an Abz-tagged model CPAF substrate derived from human vimentin:
Standard assays were performed in a total volume of 100 μL containing Assay Buffer (150 mM NaCl, 50 mM Tris pH 7.5), CPAF (62.5 nM), and varying concentrations (0-6 mM) of CPAF substrate (SEQ ID NO:9). Reactions were initiated by the addition of enzyme and incubated at 25° C. for 90 seconds. Incubation was followed by removal of 80 μL aliquots and quenched by the addition of 40 μL 1.2 M HCl. […] Abz-containing peptides were detected by fluorescence emission at 420 nm, and the composition and identity of each product were confirmed by mass spectrometry by LCMS. […] The percentage of substrate converted to product was calculated from the HPLC data by integrating the area under the peaks in the chromatograms using PeakFit v4.11 (available from Systat Software), followed by analysis in Grafit 6.0 (available from Erithacus Software) using the following equation: […]
Target sequence in this assay (O84866 276-601): as above
Target sequence in this assay (O84866 1-234, added parts left off): as the sequence (O84866 1-234, added parts left off) above

Molecule: H-NFALSHFRLPLSTYKEMPYVSHWAGRRRRRRRRR-NH2 [SEQ ID NO:11, reference compound]
- Inhibition of degradation of CPAF substrates in vitro (CPAF [1]): no CPAF inhibitory activity in vitro

Molecule: COC(=O)C[C@H](NC(=O)[C@H](C)NC(=O)[C@@H](NC(=O)OCc1ccccc1)C(C)C)C(=O)CF [ZVAD-FMK] (Cbz-Val-Ala-Asp(OMe)-CH2F)
- Block of death of Chlamydia-infected cells treated with SEQ ID NO:7 [2]: efficiently blocked the death

Molecule: CC(=O)N[C@@H](Cc1ccc(O)cc1)C(=O)N[C@H](C(=O)N[C@@H](C)C(=O)N[C@@H](CC(=O)O)C(=O)CCl)C(C)C [Ac-YVAD-CMK, reference compound]
- Block of death of Chlamydia-infected cells treated with SEQ ID NO:7 [2]: efficiently blocked the death
- Rescue of C. muridarum growth defect in cells treated with SEQ ID NO:7 (C. muridarum): does not rescue the growth defect

Molecule: CC(C)C[C@H](NC(=O)[C@H](CCCNC(=N)N)NC(=O)[C@@H](NC(=O)c1ccccc1N)C(C)C)C(=O)N[C@@H](CCCNC(=N)N)C(=O)N[C@@H](CO)C(=O)N[C@@H](CO)C(=O)N[C@H](C(=O)N1CCC[C@H]1C(=O)NCC(=O)N[C@H](C(N)=O)C(C)C)C(C)C [SEQ ID NO:9, Abz-V-R-L-R-S-S-V-P-G-V-NH2] (H-[2Abz]VRLRSSVPGV-NH2)
- kcat of CPAF proteolysis of model substrate (CPAF [3]): 13.2 s⁻¹
- Km (CPAF [3]; read-out: KM of CPAF proteolysis of model substrate): 880 µM

Source: US8617563B2, “Antichlamydial agents” (Duke University, priority 2011, dated 2013)
